Source: paper PMC7112222, “Investigation of pyrimidine nucleoside analogues as chemical probes to assess compound effects on the proliferation of Trypanosoma cruzi intracellular parasites” (PLoS Neglected Tropical Diseases, 2020)
Read-outs that look alike come from different tables or passages of the source.

What was measured:
[1] = tested on: T. cruzi intracellular amastigotes; test: Image-based assay of the number of T. cruzi infected cells (intracellular amastigotes in 3T3 host cells); type: cell-based, Trypanosoma cruzi; conditions: for T. cruzi Wash off IC50 value: compound wash off, further 72 hours without compound; for inhibition at 183 µM: read-out: inhibition of T. cruzi growth at highest test concentration
Method: (§1) Parasites and host cells were maintained as outlined previously. Briefly, host 3T3 fibroblasts (ATCC, CCL-92) were grown in RPMI medium (Thermo Fisher Scientific, USA) with no phenol red, supplemented with 10% FBS (Thermo Fisher Scientific, USA) and incubated at 37°C in 5% CO2. Host cells were harvested at 70% confluency and were split every 2–3 days in 175 cm^2 flasks. 3T3 cells were cultured up to passage 7 as contact inhibition was reduced or lost at higher passages. Prior to infection with T. cruzi trypomastigotes, host cells were seeded at 1.2 x 10^6 cells in 75 cm^2 or 4 x 10^5 cells in 25 cm^2 flasks and grown for 24 hours before parasite addition. Parasites were added at a multiplicity of infection (MOI) of 10:1 and incubated for 24 hours before non-infected trypomastigotes were washed off the host cell bed with PBS supplemented with Ca^2+ and Mg^2+ (Thermo Fisher Scientific, USA). Incubation was continued for a further 3 days, until tissue culture trypomastigotes began to egress from host cells. Egressed parasites were used for assays or to continue the infective life cycle in vitro.
(§2) The activity of the nucleoside analogues against T. cruzi intracellular amastigotes following 24, 48 hours exposure and compound wash off, was determined using image-based techniques as previously described. Briefly, 14-point serial dilutions of the compounds in 100% DMSO were prepared and then further diluted in sterile water at a ratio of 1:21 compound: water. Five microliters of the diluted compounds were added to wells of T. cruzi infected host cells, using a MiniTrak compound handling device (Perkin Elmer, USA) with final concentrations in the plate ranging from 183 μM to 4.6 x 10^−4 μM. All experiments were performed with two separate biological replicates.
IC50 values for inhibitory activity of both the nucleoside analogues tested as DNA probes and known inhibitors tested to determine their effect on replication of T. cruzi were calculated in GraphPad Prism 5, using sigmoidal dose response with variable slope. […] The p-value for difference in the % activity at Emax concentrations for compounds with known activity (EdU identified parasites, compared to Hoechst identified parasites) against T. cruzi was determined using GraphPad Prism 5, using an unpaired student’s t-test. […] The Emax for each compound was at least two data points in from the beginning of the plateau of activity in the IC50 curve, as previously described.

[2] = tested on: T. cruzi intracellular amastigotes; test: Detection of T. cruzi replication following exposure to inhibitors (EdU incorporation vs Hoechst); type: cell-based, Trypanosoma cruzi; conditions: for IC50: 48 hours exposure, mean ± SD
Method: The addition of host cells, parasites and compounds were as described for the T. cruzi image based method previously reported. […] Addition of nuclear and cytoplasmic dyes was undertaken as previously reported and images captured on an Opera confocal image-based system at 20x magnification. Image analysis was performed with a script developed in Columbus software (CHEMICAL LABEL INCORPORATION SCRIPT). Control wells were also imaged at an increased, 60x magnification to show the distribution of staining and the structure of the parasites within host cells. Eight background control wells consisted of infected host cells, fixed and exposed to Hoechst and the click chemistry cocktail, without the addition of the chemical probe EdU. […] All images taken were not modified and were taken on an Opera, confocal image-based reader.

3T3 cells = test: Image-based assay, effect on 3T3 host cells; type: cell-based; conditions: 48 h, highest test concentration 183 μM
Method: as §1
as §2, with “The activity of the nucleoside analogues against T. cruzi intracellular amastigotes following 24, 48 hours exposure and compound wash off, was determined using image-based techniques as previously described.” left out
Image analysis was performed with a script developed in Columbus software (CHEMICAL LABEL INCORPORATION SCRIPT). Control wells were also imaged at an increased, 60x magnification to show the distribution of staining and the structure of the parasites within host cells. Eight background control wells consisted of infected host cells, fixed and exposed to Hoechst and the click chemistry cocktail, without the addition of the chemical probe EdU. […] The percentage activity of compounds against parasite number / infected cells (identified with Hoechst) was calculated against a positive control of 12 μM of NFX for the parasite and 30 μM of PURO the host cells; and a negative control of 0.47% DMSO. All images taken were not modified and were taken on an Opera, confocal image-based reader.

HEK293 cells = test: Redox-based assay to assess HEK293 viability; type: cell-based, human; conditions: 48 hours exposure, highest test concentration 87 μM, EdU value estimated, relative to Emax plateau of 57%
Method: To determine the effect of the nucleoside analogues against a replicating mammalian cell line, analogues were tested against HEK293 cells, utilising a REDOX-based metabolic assay to assess cell viability as previously described. […] Experiments were performed over two biological replicates.

T. cruzi amastigote DNA = test: Incorporation of pyrimidine nucleoside analogues into T. cruzi amastigote DNA (click chemistry, colocalisation with Hoechst); type: cell-based, Trypanosoma cruzi; conditions: for incorporation (no incorporation observed): concentrations up to a maximum of 73 μM
Method: T. cruzi infected 3T3 fibroblasts were initially exposed to nucleoside analogues for 48 hours at concentrations ranging from 73 μM to 1.8 x10^-4 μM. Host cell, parasite and compound additions were carried out as previously described. Cells were then stained using a click chemistry azide cocktail, followed by Hoechst to identify nuclear material, as previously reported. The freshly prepared azide cocktail consisted of a final concentration of 5 μM of Alexa Fluor 488 azide (Thermo Fisher Scientific, USA), 1 mM copper sulfate (Sigma Aldrich, USA) and 100 mM sodium ascorbate (Sigma Aldrich, USA), in DPBS. Wells were imaged on an Opera image-based reader (Perkin Elmer, USA) at 20x magnification with 405 nm (defined as Hoechst channel) and 488 nm (defined as Alexa 488 channel) lasers using filter sets/bandwidth (emission) of 450/50 nm and 540/75 nm, respectively. To determine nucleoside analogue incorporation into T. cruzi amastigote DNA, a script was developed utilising the Columbus (PerkinElmer, USA) image-based analysis and data handling platform (CHEMICAL LABEL INCORPORATION SCRIPT). Nucleoside analogues were also tested for DNA incorporation following 2, 4 and 24 hours exposure, at the same concentrations. All experiments were performed in duplicate. The colocalisation of nucleoside analogues and Hoechst (replicating parasites) at each time point (48, 4 and 2 hours) was compared using GraphPad Prism 5.
A CHEMICAL LABEL INCORPORATION SCRIPT developed in Columbus firstly identified Hoechst stained parasites within host cells by spot analysis, utilizing the same building block analysis as we had previously developed to determine T. cruzi infected cells. The physical definition of amastigote DNA was identified by Hoechst, with the only modification being that as there was no cytoplasmic marker, thus segmentation borders in the Hoechst channel were applied, which effectively separated host cells (Fig 2). Further building blocks were added to calculate the intensity of Alexa Fluor 488 within the spots identified by Hoechst, in infected cells. This script was first applied to images to determine the mean fluorescence intensity in the Alexa 488 channel of Hoechst identified parasites, without the addition of the chemical label. The mean plus three times the standard deviation of this intensity was used to define values above background, thus the minimum intensity above background required to identify parasite DNA which successfully incorporated the chemical label. An input box was incorporated into the script, in which this minimum intensity above background was entered. Parameters of the developed script, “CHEMICAL LABEL INCORPORATION” are shown in S1 Table.
• Number of T. cruzi amastigote infected cells (≥5 parasites per cell, identified with Hoechst). • Number of Hoechst identified T. cruzi parasites (in infected cells). • Number of parasites incorporating chemical label (T. cruzi parasites with Alexa 488 intensity above background, in infected cells). • % chemical label incorporation. Alexa 488 spots in infected cells (above background) NO / Hoechst spots in infected cells NO *100 = Percentage colocalisation; where NO = number of objects. • Number of host cells.

[3] = Trypanosoma cruzi, 48 hours exposure, well-established intracellular infection assay, mean ± SD, POSA value based on sub-optimal effect (Emax 75%), read-out: IC50 value Infected cells (Hoechst)
[4] = Trypanosoma cruzi, then 0.37 μM EdU for 4 hours, number of EdU incorporating parasites, read-out: IC50 value Amastigotes (EdU)
[5] = Trypanosoma cruzi, number of Hoechst identified parasites in infected cells, read-out: IC50 value Amastigotes (Hoechst)
[6] = 24 hours exposure, highest test concentration 183 μM
[7] = 48 hours incubation, highest test concentration 183 μM
[8] = Trypanosoma cruzi, 48 h, 48 hours incubation

Compound | IC50 [1, 3] [µM] | IC50 [2, 4] [µM] | IC50 [2, 5] [µM] | T. cruzi 24 IC50 value [1, 6] | T. cruzi Wash off IC50 value [1, 7] | T. cruzi 48 IC50 value [1, 7] | inhibition at 183 µM [1, 8] [%] | Host cell 3T3 IC50 value 48 h (3T3 cells) | HEK293 IC50 value (HEK293 cells) | incorporation into T. cruzi DNA following 48 hours incubation (in words) (T. cruzi amastigote DNA) | incorporation (no incorporation observed) (T. cruzi amastigote DNA; 48 hours) [%] | other results
O=C(Cn1ccnc1[N+](=O)[O-])NCc1ccccc1 [BZ, benznidazole] | 6.7 ± 0.64 | 1.29 ± 0.25 | 2.8 ± 0.94 | – | – | – | – | – | – | – | – | inhibition at 127 µM ([2]; Trypanosoma cruzi, 2 h, read-out: mean inhibition of incorporation of EdU into the parasite DNA): 72 ± 8.7%
C#Cc1cn([C@@H]2O[C@H](CO)[C@@H](O)[C@@H]2Br)c(=O)[nH]c1=O [Br-ara-EdU, (2′S)-2′-bromo-2′-deoxy-5-ethynyl-uridine] | – | – | – | NA (NA = ≤50% activity at the highest concentration tested and an IC50 value could not be determined) | NA (NA = ≤50% activity at the highest concentration tested and an IC50 value could not be determined) | NA (NA = ≤50% activity at the highest concentration tested and an IC50 value could not be determined) | ≤ 50 | NA (NA = ≤50% activity at the highest concentration tested and an IC50 value could not be determined) | NA (NA = ≤50% activity at the highest concentration tested and an IC50 value could not be determined) | did not | < 20 | –
C#Cc1cn([C@@H]2O[C@H](CO)[C@@H](O)[C@@H]2Cl)c(=O)[nH]c1=O [Cl-ara-EdU, (2′S)-chloro-2′-deoxy-5-ethynyl-uridine] | – | – | – | NA (NA = ≤50% activity at the highest concentration tested and an IC50 value could not be determined) | NA (NA = ≤50% activity at the highest concentration tested and an IC50 value could not be determined) | NA (NA = ≤50% activity at the highest concentration tested and an IC50 value could not be determined) | ≤ 50 | NA (NA = ≤50% activity at the highest concentration tested and an IC50 value could not be determined) | NA (NA = ≤50% activity at the highest concentration tested and an IC50 value could not be determined) | did not | < 20 | –
C#Cc1cn([C@@H]2O[C@H](CO)[C@@H](O)[C@@H]2F)c(=O)[nH]c1=O [F-ara-EdU, (2S′)-2′-deoxy-2′-fluoro-5-ethynyl-uridine] | – | – | – | NA (NA = ≤50% activity at the highest concentration tested and an IC50 value could not be determined) | NA (NA = ≤50% activity at the highest concentration tested and an IC50 value could not be determined) | NA^3 (NA = ≤50% activity at the highest concentration tested and an IC50 value could not be determined) | ≤ 50 | NA (NA = ≤50% activity at the highest concentration tested and an IC50 value could not be determined) | NA (NA = ≤50% activity at the highest concentration tested and an IC50 value could not be determined) | incorporated | – | inhibition at 73 µM ([1]; Trypanosoma cruzi, 48 h, 73 μM, 48 hours incubation, read-out: inhibition / activity against T. cruzi amastigotes at 73 μM): < 50%; incorporation into parasite DNA following 2 hours exposure (T. cruzi amastigote DNA; 2 hours exposure): No incorporation; % of T. cruzi parasites with incorporation (T. cruzi amastigote DNA; 4 hours, 73 μM): 36 ± 7.3%; % of parasites with analogue incorporated (T. cruzi amastigote DNA; 48 hours, top concentration 73 μM): 91 ± 0.23%
CC[C@@H]([C@H](C)O)n1ncn(-c2ccc(N3CCN(c4ccc(OC[C@@H]5CO[C@@](Cn6cncn6)(c6ccc(F)cc6F)C5)cc4)CC3)cc2)c1=O [POSA, posaconazole] | 0.004 ± 0.0082 | 0.0038 ± 0.001 | 0.0038 ± 0.001 | – | – | – | – | – | – | – | – | Emax ([1]; Trypanosoma cruzi, 48 hours, infected cells (Hoechst), read-out: maximum activity (Emax) against T. cruzi): 75%; inhibition of EdU incorporation ([2]; 2 hours exposure, 1 μM (250 x the IC50 value), then 1.83 μM EdU 2 hours): no inhibition
COc1ccc(C[C@H](N)C(=O)N[C@H]2[C@@H](O)[C@H](n3cnc4c(N(C)C)ncnc43)O[C@@H]2CO)cc1 [PURO, puromycin] | – | – | – | – | – | – | – | – | – | – | – | IC50 ([1]; Trypanosoma cruzi, 24 hours exposure, highest test concentration 183 μM, read-out: T. cruzi 24 IC50 value): 7.6 ± 1.2 µM; Emax ([1]; Trypanosoma cruzi, 24 hours exposure, read-out: T. cruzi 24 relative Emax (in brackets) (converted)): 92%; IC50 ([1]; Trypanosoma cruzi, 48 hours incubation, highest test concentration 183 μM, read-out: T. cruzi 48 IC50 value): 2.36 ± 0.78 µM; Emax ([1]; Trypanosoma cruzi, 48 hours incubation, read-out: T. cruzi 48 relative Emax (in brackets) (converted)): 100%; IC50 (3T3 cells; Mus musculus, NIH3T3, read-out: Host cell 3T3 IC50 value 48 h): 4.4 ± 0.8 µM; IC50 (HEK293 cells; Homo sapiens, HEK293): 0.41 ± 0.17 µM
